Tests used:
Penicillium italicum = test: Test 2 for antifungal effect, plate medium: P.i; type: cell-based; conditions: PDA plate medium
Experimental: (§1) Compound (1-1b) or Compound (1-2b) was dissolved in dimethyl sulfoxide, and the resulting solution was added to a PDA medium (potato dextrose-agar medium) at about 60° C. The medium and the solution were mixed thoroughly in a conical flask, poured into a petri dish, and allowed to solidify. In this way, a plate medium containing Compound (1-1b) or Compound (1-2b) at a certain concentration was prepared.
(§2) Meanwhile, test microorganisms cultured on a plate medium in advance were cut out with the use of a cork borer 4 mm in diameter, and were inoculated onto the compound-containing plate medium. After the inoculation, the pathogens were cultured at their optimum growth temperatures (for example, refer to LIST OF CULTURES 1996 microorganisms 10th edition, Institute for Fermentation (foundation)) for 1 day to 7 days, and their growth was determined by measuring the diameter of their flora. The extent of growth of the pathogens on the compound-containing plate medium was compared with that of pathogens on a plate medium where no compound was added, and mycelial growth inhibition rate was calculated as in Experiment Example 10. Note that, in Experiment Example 11, controls used in the antifungal effect tests are Compound (1-1a) and Compound (1-2a) instead of Compound (1-1b) and Compound (1-2b), respectively.
(§3) The results were rated on a 1-to-5 scale as in Experiment Example 10.

wheat [1] = test: Necrosis (adverse effects) of seed treatment on wheat seeds; type: in vivo; conditions: 20 days after sowing
Experimental: A pot experiment was performed to evaluate necrosis (adverse effects) caused by the seed treatment. Compound (1-1a) and Compound (1-2a), each which was dissolved in DMSO to make up such a concentration that the seeds would be treated in treatment amount of 2 g to 200 g ai/100 kg seeds, were each applied to wheat seeds in a vial, and thereafter 8 wheat seeds were sowed in an 80-cm^2 pot. The pot was kept in a greenhouse with water supplied to its bottom. 20 days after the sowing, an extent of necrosis (percentage of necrotic surface area) of wheat was evaluated. A necrosis index was derived from the percentage of the necrotic surface area, based on the criteria shown by Table 13. In Table 13, a smaller necrosis index indicates a lesser adverse effect of necrosis caused by the treatment with the use of a plant disease controlling agent.

Gibberella fujikuroi = test: Test 1 for antifungal effect, plate medium: G.f; type: cell-based; conditions: PDA plate medium
Experimental: as §1, with “(1-1a)” for “(1-1b)”, “(1-2a)” for “(1-2b)”
(§4) Meanwhile, test microorganisms cultured on a plate medium in advance were cut out with the use of a cork borer 4 mm in diameter, and were inoculated onto the compound-containing plate medium. After the inoculation, the microorganisms were cultured at their optimum growth temperatures (for example, refer to LIST OF CULTURES 1996 microorganisms 10th edition, Institute for Fermentation (foundation)) for 1 day to 7 days, and their growth was determined by measuring the diameter of their flora. The extent of growth of the microorganisms on the compound-containing plate medium was compared with that of microorganisms on a plate medium where no compound was added, and mycelial growth inhibition rate was calculated by the following equation: R=100(dc−dt)/dc where R is mycelial growth inhibition rate (%), dc is the flora diameter in untreated plate, and dt is the flora diameter in plate treated with the compound.
(§5) A larger antifungal index indicates a better antifungal effect.

Sclerotinia sclerotiorum = test: Test 1 for antifungal effect, plate medium: S.s; type: cell-based; conditions: PDA plate medium
Experimental: as §1, with “(1-1a)” for “(1-1b)”, “(1-2a)” for “(1-2b)”
as §4, §5

wheat [2] = test: Growth inhibition (adverse effects) of seed treatment on wheat seeds; type: in vivo; conditions: for Growth inhibition index: wheat, 20 days after sowing
Experimental: A pot experiment was performed to evaluate the growth inhibition (adverse effects) caused by the seed treatment. Compound (1-1a) and Compound (1-2a), each of which was dissolved in DMSO to make up such a concentration that the seeds would be treated in treatment amount of 2 g to 200 g ai/100 kg seeds, were each applied to wheat seeds in a vial, and thereafter 8 wheat seeds were sowed in an 80-cm^2 pot. The pot was kept in a greenhouse with water supplied to its bottom. 20 days after the sowing, a growth measure of wheat was evaluated. A growth inhibition index was calculated based on the criteria shown by Table 10. In Table 10, a smaller growth inhibition index indicates a lesser adverse effect of growth inhibition caused by the treatment with the use of a plant disease controlling agent.

Septoria tritici = test: Test 2 for antifungal effect, plate medium: S.t; type: cell-based; conditions: PDA plate medium
Experimental: as §1, §2, §3

Ustilago nuda = test: Test 2 for antifungal effect, plate medium: U.n; type: cell-based; conditions: PDA plate medium
Experimental: as §1, §2, §3

Fusarium oxysporum = test: Test 2 for antifungal effect, plate medium: F.c; type: cell-based; conditions: PDA plate medium
Experimental: as §1, §2, §3

[3] = treatment amount 2 g ai/100 kg seeds
[4] = treatment amount 20 g ai/100 kg seeds
[5] = treatment amount 200 g ai/100 kg seeds

Q: With `CC1(CCl)CCC(Cc2ccc(F)cc2)C1(O)Cn1cncn1` (single isomer, unassigned) [Compound (1-2b), (1,2-cis, 1,5-cis)-5-(4-fluorobenzyl)-2-chloromethyl-2-methyl-1-(1H-1,2,4-triazole-1-ylmethyl)cyclopentanol] as the compound, how does the “Antifungal index (mycelial growth inhibition rate)” value (Penicillium italicum; 0.04 mg/L) read?
A: 1 (Less than 60%)

Q: And the “Antifungal index (mycelial growth inhibition rate)” value (Penicillium italicum; 0.08 mg/L)?
A: 4 (Less than 90% but not less than 80%)

Q: What about the “Antifungal index (mycelial growth inhibition rate)” value (Penicillium italicum; 0.16 mg/L) of the same compound?
A: 5 (90% or greater)

Q: And the “Antifungal index (mycelial growth inhibition rate)” value (Penicillium italicum; 0.31 mg/L)?
A: 5 (90% or greater)

Q: What about the “Antifungal index (mycelial growth inhibition rate)” value (Penicillium italicum; 0.63 mg/L) of the same compound?
A: 5 (90% or greater)

Q: What about the “Antifungal index (mycelial growth inhibition rate)” value (Penicillium italicum; 1.25 mg/L) of the same compound?
A: 5 (90% or greater)

Q: And the Necrosis index (wheat [1]; [3])?
A: 0 (Less than 1%)

Q: And the Necrosis index (wheat [1]; [4])?
A: 3 (20% or more)

Q: And the Necrosis index (wheat [1]; [5])?
A: 3 (20% or more)

Q: What about the “Antifungal index (mycelial growth inhibition rate)” value (Gibberella fujikuroi; 0.16 mg/L) of the same compound?
A: 3 (Less than 80% but not less than 70%)

Q: What about the “Antifungal index (mycelial growth inhibition rate)” value (Gibberella fujikuroi; 0.31 mg/L) of the same compound?
A: 4 (Less than 90% but not less than 80%)

Q: What about the “Antifungal index (mycelial growth inhibition rate)” value (Gibberella fujikuroi; 0.63 mg/L) of the same compound?
A: 5 (90% or greater)

Q: What about the “Antifungal index (mycelial growth inhibition rate)” value (Gibberella fujikuroi; 1.25 mg/L) of the same compound?
A: 5 (90% or greater)

Q: What about the “Antifungal index (mycelial growth inhibition rate)” value (Gibberella fujikuroi; 2.50 mg/L) of the same compound?
A: 5 (90% or greater)

Q: And the “Antifungal index (mycelial growth inhibition rate)” value (Sclerotinia sclerotiorum; 0.16 mg/L)?
A: 3 (Less than 80% but not less than 70%)

Q: And the “Antifungal index (mycelial growth inhibition rate)” value (Sclerotinia sclerotiorum; 0.31 mg/L)?
A: 5 (90% or greater)

Q: And the “Antifungal index (mycelial growth inhibition rate)” value (Sclerotinia sclerotiorum; 0.63 mg/L)?
A: 5 (90% or greater)

Q: And the “Antifungal index (mycelial growth inhibition rate)” value (Sclerotinia sclerotiorum; 1.25 mg/L)?
A: 5 (90% or greater)

Q: And the “Antifungal index (mycelial growth inhibition rate)” value (Sclerotinia sclerotiorum; 2.50 mg/L)?
A: 5 (90% or greater)

Q: What about the “Growth of the treated seeds” value (wheat [2]; wheat seed treatment 20 g ai/100 kg seeds (seen in the brown rust seed treatment test)) of the same compound?
A: inhibited

Q: What about the Growth inhibition index (wheat [2]; [3]) of the same compound?
A: 0 (50% or more)

Q: And the Growth inhibition index (wheat [2]; [4])?
A: 4 (Less than 20% but 10% or more)

Q: What about the Growth inhibition index (wheat [2]; [5]) of the same compound?
A: 5 (Less than 10%)

Q: What about the “Antifungal index (mycelial growth inhibition rate)” value (Septoria tritici; 0.04 mg/L) of the same compound?
A: 2 (Less than 70% but not less than 60%)

Q: What about the “Antifungal index (mycelial growth inhibition rate)” value (Septoria tritici; 0.08 mg/L) of the same compound?
A: 5 (90% or greater)

Q: And the “Antifungal index (mycelial growth inhibition rate)” value (Septoria tritici; 0.16 mg/L)?
A: 5 (90% or greater)

Q: And the “Antifungal index (mycelial growth inhibition rate)” value (Septoria tritici; 0.31 mg/L)?
A: 5 (90% or greater)

Q: What about the “Antifungal index (mycelial growth inhibition rate)” value (Septoria tritici; 0.63 mg/L) of the same compound?
A: 5 (90% or greater)

Q: What about the “Antifungal index (mycelial growth inhibition rate)” value (Septoria tritici; 1.25 mg/L) of the same compound?
A: 5 (90% or greater)

Q: And the “Antifungal index (mycelial growth inhibition rate)” value (Ustilago nuda; 0.04 mg/L)?
A: 1 (Less than 60%)

Q: And the “Antifungal index (mycelial growth inhibition rate)” value (Ustilago nuda; 0.08 mg/L)?
A: 1 (Less than 60%)

Q: And the “Antifungal index (mycelial growth inhibition rate)” value (Ustilago nuda; 0.16 mg/L)?
A: 2 (Less than 70% but not less than 60%)

Q: What about the “Antifungal index (mycelial growth inhibition rate)” value (Ustilago nuda; 0.31 mg/L) of the same compound?
A: 4 (Less than 90% but not less than 80%)

Q: What about the “Antifungal index (mycelial growth inhibition rate)” value (Ustilago nuda; 0.63 mg/L) of the same compound?
A: 4 (Less than 90% but not less than 80%)

Q: And the “Antifungal index (mycelial growth inhibition rate)” value (Ustilago nuda; 1.25 mg/L)?
A: 5 (90% or greater)

Q: And the “Antifungal index (mycelial growth inhibition rate)” value (Fusarium oxysporum; 0.04 mg/L)?
A: 1 (Less than 60%)

Q: What about the “Antifungal index (mycelial growth inhibition rate)” value (Fusarium oxysporum; 0.08 mg/L) of the same compound?
A: 2 (Less than 70% but not less than 60%)

Q: What about the “Antifungal index (mycelial growth inhibition rate)” value (Fusarium oxysporum; 0.16 mg/L) of the same compound?
A: 3 (Less than 80% but not less than 70%)

Q: And the “Antifungal index (mycelial growth inhibition rate)” value (Fusarium oxysporum; 0.31 mg/L)?
A: 4 (Less than 90% but not less than 80%)

Q: And the “Antifungal index (mycelial growth inhibition rate)” value (Fusarium oxysporum; 0.63 mg/L)?
A: 5 (90% or greater)

Q: And the “Antifungal index (mycelial growth inhibition rate)” value (Fusarium oxysporum; 1.25 mg/L)?
A: 5 (90% or greater)

— patent publication US9253983B2, “Triazole compound and use thereof” (KUREHA CORPORATION, priority 2011, dated 2016)
